For 47 compounds, glass transition temperature results are on record in the PolyMetriX glass transition set.

In turn, `*/C=C(/*)CCCOc1ccc(OC(=O)c2ccc(OCCCCCCCC)cc2)cc1` (repeat unit) registered a glass transition temperature of 42.00 °C.
Under `*C(=O)Nc1ccc(-c2cc(-c3ccccc3)cc(-c3ccc(NC(=O)c4ccc5c(c4)C(=O)N(c4ccc(NC(=O)Nc6ccc(N7C(=O)c8ccc(*)cc8C7=O)cc6)cc4)C5=O)cc3)n2)cc1` (repeat unit) stands 215.00 °C.
Under `*C(=O)Nc1ccc(-c2ccc(NC(=O)c3ccc4c(c3)C(=O)N(c3ccc(NC(=O)Nc5ccc(N6C(=O)c7ccc(*)cc7C6=O)cc5)cc3)C4=O)cc2)cc1` (repeat unit) stands 233.00 °C.
Under `*C(=O)Nc1ccc(Cc2ccc(NC(=O)c3ccc4c(c3)C(=O)N(c3ccc(-c5sc(-c6ccc(N7C(=O)c8ccc(*)cc8C7=O)cc6)c(-c6ccccc6)c5-c5ccccc5)cc3)C4=O)cc2)cc1` (repeat unit) stands 253.00 °C.
As to `*C(=O)Nc1ccc(N2C(=O)CC(N3C(=O)c4ccc(*)cc4C3=O)C2=O)cc1` (repeat unit), the glass transition temperature came out at 120.00 °C.
Under `*C(=O)Nc1ccc(NC(=O)c2ccc3[nH]c(-c4cc(-c5nc6cc(*)ccc6[nH]5)cc(N5C(=O)c6ccccc6C5=O)c4)nc3c2)cc1` (repeat unit) stands 295.00 °C; under `*C(=O)Nc1ccc(NC(=O)c2ccc3c(c2)C(=O)N(c2ccc(NC(=O)Nc4ccc(N5C(=O)c6ccc(*)cc6C5=O)cc4)cc2)C3=O)cc1` (repeat unit), 216.00 °C; under `*C(=O)Nc1ccc(NC(=O)c2ccc3c(c2)C(=O)N(c2ccc(Oc4cccc5c(N6C(=O)c7ccc(*)cc7C6=O)cccc45)cc2)C3=O)cc1` (repeat unit), 307.00 °C.
For the compound `*C(=O)Nc1ccc(NC(=O)c2ccc3c(c2)C(=O)N(c2cccc(P(=O)(c4ccccc4)c4cccc(N5C(=O)c6ccc(*)cc6C5=O)c4)c2)C3=O)cc1` (repeat unit), the glass transition temperature came to 204.00 °C.
Under `*C(=O)Nc1ccc(Oc2ccc(-c3ccc(Oc4ccc(NC(=O)c5ccc6c(c5)C(=O)N(c5ccc(Oc7ccc(S(=O)(=O)c8ccc(Oc9ccc(N%10C(=O)c%11ccc(*)cc%11C%10=O)cc9)cc8)cc7)cc5)C6=O)cc4)cc3)cc2)cc1` (repeat unit) stands 267.00 °C; under `*C(=O)Nc1ccc(Oc2ccc(-c3ccc(Oc4ccc(NC(=O)c5ccc6c(c5)C(=O)N(c5ccc(Oc7cccc8c(Oc9ccc(N%10C(=O)c%11ccc(*)cc%11C%10=O)cc9)cccc78)cc5)C6=O)cc4)cc3)cc2)cc1` (repeat unit), 310.00 °C.
The compound `*C(=O)Nc1ccc(Oc2ccc(-c3ccc(Oc4ccc(NC(=O)c5ccc6c(c5)C(=O)N(c5ccc(Oc7ccccc7-c7ccccc7Oc7ccc(N8C(=O)c9ccc(*)cc9C8=O)cc7)cc5)C6=O)cc4)cc3)cc2)cc1` (repeat unit) had a glass transition temperature of 254.00 °C.
Under `*C(=O)Nc1ccc(Oc2ccc(C(c3ccc(Oc4ccc(NC(=O)c5ccc6c(c5)C(=O)N(c5ccc(Oc7ccc(C8(c9ccc(Oc%10ccc(N%11C(=O)c%12ccc(*)cc%12C%11=O)cc%10)cc9)CC9CC8C8CCCC98)cc7)cc5)C6=O)cc4)cc3)(C(F)(F)F)C(F)(F)F)cc2)cc1` (repeat unit) stands 254.00 °C; under `*C(=O)Nc1ccc(Oc2ccc(NC(=O)c3ccc4c(c3)C(=O)N(c3ccc(NC(=O)Nc5ccc(N6C(=O)c7ccc(*)cc7C6=O)cc5)cc3)C4=O)cc2)cc1` (repeat unit), 205.00 °C; under `*C(=O)Nc1ccc(S(=O)(=O)c2ccc(NC(=O)c3ccc4c(c3)C(=O)N(c3ccc(NC(=O)Nc5ccc(N6C(=O)c7ccc(*)cc7C6=O)cc5)cc3)C4=O)cc2)cc1` (repeat unit), 205.00 °C.
As to `*C(=O)Nc1ccc2c(c1)Cc1cc(NC(=O)c3ccc4c(c3)C(=O)N(c3ccc(NC(=O)Nc5ccc(N6C(=O)c7ccc(*)cc7C6=O)cc5)cc3)C4=O)ccc1-2` (repeat unit), the glass transition temperature was determined as 224.00 °C.
With `*CCCCCOc1ccc(NC(=O)c2cccc(C(=O)Nc3ccc(O*)cc3)c2)cc1` (repeat unit), the glass transition temperature turned out to be 155.00 °C.
With `*CCOCCOc1ccc(NC(=O)c2cccc(C(=O)Nc3ccc(O*)cc3)c2)cc1` (repeat unit) the figure was 155.00 °C; with `*Cc1ccc2oc(=O)c(C(=O)Nc3ccc(Oc4ccc(C(c5ccc(Oc6ccc(NC(=O)c7cc8cc(*)ccc8oc7=O)cc6)cc5)(C(F)(F)F)C(F)(F)F)cc4)cc3)cc2c1` (repeat unit), 283.00 °C.
Compound `*Nc1cc(NC(=O)Nc2ccc(NC(*)=O)cc2)cc(C(=O)Nc2ccc3c(c2)C(=O)c2ccccc2C3=O)c1` (repeat unit) came in with a glass transition temperature of 184.00 °C.
Under `*Nc1cc(NC(=O)Nc2ccc(NC(*)=O)cc2)cc(C(=O)Nc2cccc3c2C(=O)c2ccccc2C3=O)c1` (repeat unit) stands 190.00 °C.
Under `*Nc1ccc(Cc2ccc(NC(=O)c3ccc(P(=O)(c4ccccc4)c4ccc(C(*)=O)cc4)cc3)cc2)cc1` (repeat unit) stands 307.00 °C; under `*Nc1ccc(NC(=O)c2ccc(NC(=O)c3ccc(P(=O)(c4ccccc4)c4ccc(C(*)=O)cc4)cc3)cc2)cc1` (repeat unit), 243.00 °C; under `*Nc1ccc(NC(=O)c2cccc(C(*)=O)c2)cc1` (repeat unit), 295.00 °C.
With `*Nc1ccc(NC(=O)c2cccc(C(=O)c3ccc(C(*)=O)cc3)c2)cc1` (repeat unit) the figure was 257.50 °C; with `*OP(=O)(Oc1ccc(NC(=O)Oc2ccc(-c3ccc(OC(=O)Nc4ccc(*)cc4)cc3)cc2)cc1)c1ccccc1` (repeat unit), 34.00 °C; with `*Oc1ccc(NC(=O)c2cc(C(=O)Nc3ccc(Oc4ccc(C(c5ccc(*)cc5)(C(F)(F)F)C(F)(F)F)cc4)cc3)cc([N+](=O)[O-])c2)cc1` (repeat unit), 232.00 °C.
The compound `*Oc1ccc(NC(=O)c2ccc(*)cc2)cc1` (repeat unit) yielded a glass transition temperature of 225.00 °C.
Under `*Oc1ccc(NC(=O)c2ccc(C(=O)Nc3ccc(Oc4ccc(C(c5ccc(*)cc5)(C(F)(F)F)C(F)(F)F)cc4)cc3)cc2)cc1` (repeat unit) stands 243.00 °C.
With `*Oc1ccc(NC(=O)c2ccc([Si](c3ccccc3)(c3ccccc3)c3ccc(C(*)=O)cc3)cc2)cc1` (repeat unit) the figure was 235.00 °C.
Compound `*Oc1ccc(NC(=O)c2cccc(C(=O)Nc3ccc(OC4COC5C(*)COC45)cc3)c2)cc1` (repeat unit) returned a glass transition temperature of 218.00 °C.
Compound `*Oc1ccc(Oc2ccc(C(=O)Nc3ccc(Cc4ccc(NC(=O)c5ccc(*)cc5)cc4)cc3)cc2)cc1-c1ccccc1` (repeat unit) registered a glass transition temperature of 218.00 °C.
With `*Oc1ccc2ccc(Oc3ccc(C(=O)Nc4ccc(Oc5ccc(C(c6ccc(Oc7ccc(NC(=O)c8ccc(*)cc8)cc7)cc6)(C(F)(F)F)C(F)(F)F)cc5)cc4)cc3)cc2c1` (repeat unit) the figure was 163.00 °C; with `*Oc1cccc(NC(=O)c2cccc(C(=O)Nc3ccc(Oc4ccc(C(=O)c5ccc(*)cc5)cc4)cc3)c2)c1` (repeat unit), 114.00 °C.
With `*c1ccc(C(=O)Nc2ccc(N3C(=O)c4ccc(-c5ccc6c(c5)C(=O)N(*)C6=O)cc4C3=O)cc2)cc1` (repeat unit) the figure was 335.00 °C.
With `*c1ccc(C(=O)c2ccc(C(=O)c3ccc(Oc4ccc(-c5nn(*)c(=O)c6ccccc56)c(F)c4)cc3)cc2)cc1` (repeat unit) the figure was 287.00 °C; with `*c1ccc(Cc2ccc(N3C(=O)CC(Nc4ccc(N(c5ccc(NC6CC(=O)N(*)C6=O)cc5)c5ccc([N+](=O)[O-])cc5)cc4)C3=O)cc2)cc1` (repeat unit), 276.00 °C; with `*c1ccc(NC(=O)Nc2ccc(NC(=O)Nc3ccc(-c4nc(-c5ccc(-c6nc(-c7ccc([N+](=O)[O-])cc7)c(-c7ccc([N+](=O)[O-])cc7)[nH]6)cc5)[nH]c4*)cc3)cc2)cc1` (repeat unit), 272.00 °C.
The compound `*c1ccc(NC(=O)Nc2ccc(NC(=O)Nc3ccc(-c4nc(-c5ccc([N+](=O)[O-])cc5)[nH]c4*)cc3)cc2)cc1` (repeat unit) returned a glass transition temperature of 292.00 °C.
Under `*c1ccc(Oc2ccc(C(=O)c3ccc(C(=O)c4ccc(Oc5ccc(-c6cc(*)[nH]n6)cc5)cc4)cc3)cc2)cc1` (repeat unit) stands 235.00 °C; under `*c1ccc(Oc2ccc(C(=O)c3ccc(C(=O)c4ccc(Oc5ccc(-c6nc(-c7ccccc7)[nH]c6*)cc5)cc4)cc3)cc2)cc1` (repeat unit), 248.00 °C.
Regarding `*c1ccc(Oc2ccc(NC(=O)c3cccc(C(=O)Nc4ccc(Oc5ccc(-n6c(=O)c7cc8c(=O)n(*)c(=O)c8cc7c6=O)cc5)cc4)c3)cc2)cc1` (repeat unit), the glass transition temperature is 282.00 °C.
As to `*c1ccc2c(c1)C(=O)N(c1cccc(C(=O)Nc3ccc(NC(=O)c4ccc(NC(=O)c5cccc(N6C(=O)c7ccc(C(*)(C(F)(F)F)C(F)(F)F)cc7C6=O)c5)cc4)cc3)c1)C2=O` (repeat unit), the glass transition temperature turned out to be 328.00 °C.
With `*c1ccc2c(c1)C(=O)N(c1cccc(C(=O)Nc3ccc(NC(=O)c4cccc(N5C(=O)c6ccc(C(*)(C(F)(F)F)C(F)(F)F)cc6C5=O)c4)cc3)c1)C2=O` (repeat unit) the figure was 311.00 °C; with `*c1ccc2c(c1)C(=O)N(c1cccc(C(=O)Nc3ccc(Oc4ccc(-c5ccc(Oc6ccc(NC(=O)c7cccc(N8C(=O)c9ccc(C(*)(C(F)(F)F)C(F)(F)F)cc9C8=O)c7)cc6)cc5)cc4)cc3)c1)C2=O` (repeat unit), 280.00 °C; with `*c1cccc(C(=O)Nc2ccc(NC(=O)c3cccc(N4C(=O)c5ccc(-c6cccc7c6C(=O)N(*)C7=O)cc5C4=O)c3)cc2)c1` (repeat unit), 328.00 °C.
Take `*c1cccc(C(=O)Nc2ccc(Oc3ccc(-c4ccc(Oc5ccc(NC(=O)c6cccc(N7C(=O)c8ccc(-c9cccc%10c9C(=O)N(*)C%10=O)cc8C7=O)c6)cc5)cc4)cc3)cc2)c1` (repeat unit): the glass transition temperature turned out to be 275.00 °C.
